These results are taken from ChEMBL document CHEMBL4433219, “EC18 as a Tool To Understand the Role of HCN4 Channels in Mediating Hyperpolarization-Activated Current in Tissues” (ACS Med Chem Lett, 2019).

The target of assay [1] is T1, Potassium/sodium hyperpolarization-activated cyclic nucleotide-gated channel 4 (Homo sapiens) (UniProt Q9Y3Q4).
T1 sequence (whole entry): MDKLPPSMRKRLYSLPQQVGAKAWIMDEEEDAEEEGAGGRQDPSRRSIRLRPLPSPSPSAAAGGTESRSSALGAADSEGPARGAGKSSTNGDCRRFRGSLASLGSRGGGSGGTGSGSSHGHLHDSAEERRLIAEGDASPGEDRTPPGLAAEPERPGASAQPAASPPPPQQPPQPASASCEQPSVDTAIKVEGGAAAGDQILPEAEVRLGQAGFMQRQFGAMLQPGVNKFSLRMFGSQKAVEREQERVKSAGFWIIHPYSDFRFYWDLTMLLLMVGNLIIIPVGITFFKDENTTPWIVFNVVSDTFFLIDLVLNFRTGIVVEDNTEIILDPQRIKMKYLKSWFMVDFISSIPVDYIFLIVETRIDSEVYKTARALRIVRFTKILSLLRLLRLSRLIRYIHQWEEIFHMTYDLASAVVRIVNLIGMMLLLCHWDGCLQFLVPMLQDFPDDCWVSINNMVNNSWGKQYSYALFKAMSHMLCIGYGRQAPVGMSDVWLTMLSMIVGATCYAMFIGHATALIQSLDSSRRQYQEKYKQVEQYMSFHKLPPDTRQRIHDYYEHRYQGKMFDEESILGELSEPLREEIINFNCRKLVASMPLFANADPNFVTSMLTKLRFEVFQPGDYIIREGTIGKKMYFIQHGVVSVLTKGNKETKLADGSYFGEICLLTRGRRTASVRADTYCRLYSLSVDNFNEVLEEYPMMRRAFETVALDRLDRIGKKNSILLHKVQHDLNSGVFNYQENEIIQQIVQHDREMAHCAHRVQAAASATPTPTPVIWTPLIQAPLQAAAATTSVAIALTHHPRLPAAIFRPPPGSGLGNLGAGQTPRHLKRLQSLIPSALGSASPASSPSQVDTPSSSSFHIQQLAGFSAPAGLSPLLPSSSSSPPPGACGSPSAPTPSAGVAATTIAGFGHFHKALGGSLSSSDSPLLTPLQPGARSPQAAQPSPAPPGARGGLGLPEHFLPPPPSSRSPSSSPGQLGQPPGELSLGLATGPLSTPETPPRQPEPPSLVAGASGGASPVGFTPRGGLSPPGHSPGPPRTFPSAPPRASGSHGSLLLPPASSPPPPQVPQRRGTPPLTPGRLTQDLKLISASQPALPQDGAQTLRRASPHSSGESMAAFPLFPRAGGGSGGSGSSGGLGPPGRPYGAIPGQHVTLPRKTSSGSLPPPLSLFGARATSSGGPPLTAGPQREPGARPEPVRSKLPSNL
In words: Inhibition of human HCN4 expressed in HEK293 cells assessed as reduction in hyperpolarization activated current at 5 uM at holding potential of -80 mV by patch clamp assay relative to control. It is filed as cell-based. Background: The patch-clamp technique gives a direct electrical read-out from membranes.

Assay [2] has as its target T2, Potassium/sodium hyperpolarization-activated cyclic nucleotide-gated channel 4 (Homo sapiens, UniProt Q9Y3Q4).
T2 sequence (Q9Y3Q4 whole entry): T1 sequence (whole entry)
In words: Inhibition of human HCN4 expressed in HEK293 cells assessed as reduction in hyperpolarization activated current at holding potential of -80 mV by patch clamp assay. It is filed as cell-based.

Assay [3] concerns Cardiac muscle of left ventricle. Kind of assay: Effect on cardiac electrophysiological profile in Mongrel perfused dog heart left ventricular muscle stimulated at basic cycle length of 1000 milliseconds assessed as action potential amplitude at 1 uM measured after 25 mins by glass capillary microelectrode based electrophysiology assay (reference value: 104.1 +/- 2.7 mV). It is filed as functional, Canis lupus familiaris.

For assay [4] the test system is unchanged. In words: Effect on cardiac electrophysiological profile in Mongrel perfused dog heart left ventricular muscle stimulated at basic cycle length of 1000 milliseconds assessed as action potential amplitude at 10 uM measured after 25 mins by glass capillary microelectrode based electrophysiology assay (reference value: 104.1 +/- 2.7 mV). It is filed as functional, Canis lupus familiaris.

Assay [5] has the same test system. In words: Effect on cardiac electrophysiological profile in Mongrel perfused dog heart left ventricular muscle stimulated at basic cycle length of 1000 milliseconds assessed as action potential time duration at 50% of repolarization at 10 uM measured after 25 mins by glass capillary microelectrode based electrophysiology assay (reference value: 176 +/- 16.36 milliseconds). It is filed as functional, Canis lupus familiaris.

For assay [6] the test system is unchanged. Kind of assay: Effect on cardiac electrophysiological profile in Mongrel perfused dog heart left ventricular muscle stimulated at basic cycle length of 1000 milliseconds assessed as action potential time duration at 10% of repolarization at 1 uM measured after 25 mins by glass capillary microelectrode based electrophysiology assay (reference value: 69.9 +/- 10.84 milliseconds). It is filed as functional, Canis lupus familiaris.

For `COc1ccc(CCN(C)[C@@H]2CCC[C@H](N3CCc4cc(OC)c(OC)cc4CC3=O)C2)cc1OC` (racemic), the inhibition (usually the percentage by which the read-out fell short of the control) in assay [1] came to 59%. The 50% effective concentration (EC50) – broadly, the concentration at which the effect is half-maximal – in assay [2] came to 3.98 µM. Moreover, the values for the Activity in assay [3] and in assay [4] were 103.1 mV and 102.3 mV, respectively. The Time in assay [5] is listed as 179.9 ms; in assay [6] it was 58.6 ms.
